Usually AC50 stands for the midpoint of the concentration-response curve, whichever way the signal moves.

AC50 data for 33 molecules are collected here from ChEMBL document CHEMBL5291721, “A preclinical secondary pharmacology resource illuminates target-adverse drug reaction associations of marketed drugs” (Nat Commun, 2023).

Some results are limits rather than exact numbers.

Assay [1] deals with Voltage-dependent L-type calcium channel subunit alpha-1C (Homo sapiens, UniProt Q13936). It is filed as functional, cell-based.
A further assay has as its target T1, Androgen receptor (Rattus norvegicus, UniProt P15207).
T1 sequence (P15207 whole entry): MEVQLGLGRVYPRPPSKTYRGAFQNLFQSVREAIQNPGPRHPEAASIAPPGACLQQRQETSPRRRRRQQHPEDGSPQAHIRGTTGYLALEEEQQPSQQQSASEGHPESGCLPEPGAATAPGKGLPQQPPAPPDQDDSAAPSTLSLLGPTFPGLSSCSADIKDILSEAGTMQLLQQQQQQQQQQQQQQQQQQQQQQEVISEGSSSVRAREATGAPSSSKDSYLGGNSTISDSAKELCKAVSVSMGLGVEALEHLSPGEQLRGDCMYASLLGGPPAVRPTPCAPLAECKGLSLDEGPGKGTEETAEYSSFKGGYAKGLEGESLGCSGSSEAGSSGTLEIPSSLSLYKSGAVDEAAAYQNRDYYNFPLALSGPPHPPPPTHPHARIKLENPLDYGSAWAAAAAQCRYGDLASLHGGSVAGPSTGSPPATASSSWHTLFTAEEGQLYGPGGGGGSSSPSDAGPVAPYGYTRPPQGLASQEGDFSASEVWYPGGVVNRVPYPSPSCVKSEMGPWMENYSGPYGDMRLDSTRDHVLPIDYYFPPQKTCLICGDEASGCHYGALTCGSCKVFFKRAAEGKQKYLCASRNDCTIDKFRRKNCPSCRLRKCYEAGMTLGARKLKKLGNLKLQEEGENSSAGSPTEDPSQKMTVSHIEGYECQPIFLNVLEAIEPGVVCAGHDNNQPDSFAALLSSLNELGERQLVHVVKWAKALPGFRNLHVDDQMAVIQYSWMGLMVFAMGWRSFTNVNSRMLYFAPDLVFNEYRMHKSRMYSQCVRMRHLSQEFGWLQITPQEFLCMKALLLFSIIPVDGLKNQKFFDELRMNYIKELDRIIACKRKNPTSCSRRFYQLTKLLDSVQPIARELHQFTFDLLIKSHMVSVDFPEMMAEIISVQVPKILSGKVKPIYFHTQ
Format: functional.

Assay [2] addresses T2, Muscarinic acetylcholine receptor M5 (Homo sapiens, UniProt P08912).
T2 sequence (P08912 whole entry): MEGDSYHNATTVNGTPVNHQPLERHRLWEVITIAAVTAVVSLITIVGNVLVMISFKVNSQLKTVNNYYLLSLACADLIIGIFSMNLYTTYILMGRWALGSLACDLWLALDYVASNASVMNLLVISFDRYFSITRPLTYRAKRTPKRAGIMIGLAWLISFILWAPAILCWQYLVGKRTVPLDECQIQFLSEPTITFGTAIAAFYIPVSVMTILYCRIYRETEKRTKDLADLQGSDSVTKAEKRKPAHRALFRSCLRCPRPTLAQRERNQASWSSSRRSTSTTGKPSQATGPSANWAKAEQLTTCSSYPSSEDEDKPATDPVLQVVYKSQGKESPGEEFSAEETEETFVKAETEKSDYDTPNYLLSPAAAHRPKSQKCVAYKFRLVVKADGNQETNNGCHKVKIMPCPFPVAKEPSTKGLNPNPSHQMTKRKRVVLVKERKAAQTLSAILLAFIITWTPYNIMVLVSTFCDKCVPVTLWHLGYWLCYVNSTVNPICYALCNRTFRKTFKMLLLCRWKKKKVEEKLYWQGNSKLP

Another assay deals with Cannabinoid receptor 1 (Homo sapiens, UniProt P21554). It is filed as functional.
The target in the next assay is T3, Estrogen receptor (Homo sapiens, UniProt P03372).
T3 sequence (P03372 whole entry): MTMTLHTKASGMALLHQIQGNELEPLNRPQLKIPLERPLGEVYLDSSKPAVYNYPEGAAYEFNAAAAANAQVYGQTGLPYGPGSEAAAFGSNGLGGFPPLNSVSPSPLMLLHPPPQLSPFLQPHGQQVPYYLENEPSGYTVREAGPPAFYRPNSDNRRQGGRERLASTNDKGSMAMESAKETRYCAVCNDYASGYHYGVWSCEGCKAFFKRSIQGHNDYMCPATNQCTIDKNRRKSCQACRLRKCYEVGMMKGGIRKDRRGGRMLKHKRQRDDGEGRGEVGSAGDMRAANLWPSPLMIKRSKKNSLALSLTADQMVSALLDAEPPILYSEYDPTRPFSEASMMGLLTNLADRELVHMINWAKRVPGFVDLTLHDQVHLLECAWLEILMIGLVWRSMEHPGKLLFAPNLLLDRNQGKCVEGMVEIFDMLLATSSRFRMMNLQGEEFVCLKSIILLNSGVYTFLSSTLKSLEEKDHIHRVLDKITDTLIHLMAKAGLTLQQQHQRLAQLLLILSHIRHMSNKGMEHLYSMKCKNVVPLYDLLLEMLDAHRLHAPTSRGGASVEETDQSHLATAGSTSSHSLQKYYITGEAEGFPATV
Format: functional.

The target in assay [3] is 5-hydroxytryptamine receptor 2A (Homo sapiens, UniProt P28223).
The target of the next assay is T4, Adenosine receptor A1 (Homo sapiens, UniProt P30542).
T4 sequence (P30542 whole entry): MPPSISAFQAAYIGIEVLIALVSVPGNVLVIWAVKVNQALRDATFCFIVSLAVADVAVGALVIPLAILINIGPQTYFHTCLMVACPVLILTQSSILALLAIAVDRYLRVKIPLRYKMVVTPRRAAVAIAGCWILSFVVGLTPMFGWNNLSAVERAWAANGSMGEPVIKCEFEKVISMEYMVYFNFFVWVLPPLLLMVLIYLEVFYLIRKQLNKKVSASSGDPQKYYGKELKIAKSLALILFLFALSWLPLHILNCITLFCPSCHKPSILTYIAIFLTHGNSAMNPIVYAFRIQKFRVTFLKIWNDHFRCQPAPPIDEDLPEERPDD

Assay [4] has as its target Vascular endothelial growth factor receptor 2 (Homo sapiens, UniProt P35968). Format: functional.
Note: assay procedure not described here.

Sequence of Voltage-dependent L-type calcium channel subunit alpha-1C (Q13936 whole entry): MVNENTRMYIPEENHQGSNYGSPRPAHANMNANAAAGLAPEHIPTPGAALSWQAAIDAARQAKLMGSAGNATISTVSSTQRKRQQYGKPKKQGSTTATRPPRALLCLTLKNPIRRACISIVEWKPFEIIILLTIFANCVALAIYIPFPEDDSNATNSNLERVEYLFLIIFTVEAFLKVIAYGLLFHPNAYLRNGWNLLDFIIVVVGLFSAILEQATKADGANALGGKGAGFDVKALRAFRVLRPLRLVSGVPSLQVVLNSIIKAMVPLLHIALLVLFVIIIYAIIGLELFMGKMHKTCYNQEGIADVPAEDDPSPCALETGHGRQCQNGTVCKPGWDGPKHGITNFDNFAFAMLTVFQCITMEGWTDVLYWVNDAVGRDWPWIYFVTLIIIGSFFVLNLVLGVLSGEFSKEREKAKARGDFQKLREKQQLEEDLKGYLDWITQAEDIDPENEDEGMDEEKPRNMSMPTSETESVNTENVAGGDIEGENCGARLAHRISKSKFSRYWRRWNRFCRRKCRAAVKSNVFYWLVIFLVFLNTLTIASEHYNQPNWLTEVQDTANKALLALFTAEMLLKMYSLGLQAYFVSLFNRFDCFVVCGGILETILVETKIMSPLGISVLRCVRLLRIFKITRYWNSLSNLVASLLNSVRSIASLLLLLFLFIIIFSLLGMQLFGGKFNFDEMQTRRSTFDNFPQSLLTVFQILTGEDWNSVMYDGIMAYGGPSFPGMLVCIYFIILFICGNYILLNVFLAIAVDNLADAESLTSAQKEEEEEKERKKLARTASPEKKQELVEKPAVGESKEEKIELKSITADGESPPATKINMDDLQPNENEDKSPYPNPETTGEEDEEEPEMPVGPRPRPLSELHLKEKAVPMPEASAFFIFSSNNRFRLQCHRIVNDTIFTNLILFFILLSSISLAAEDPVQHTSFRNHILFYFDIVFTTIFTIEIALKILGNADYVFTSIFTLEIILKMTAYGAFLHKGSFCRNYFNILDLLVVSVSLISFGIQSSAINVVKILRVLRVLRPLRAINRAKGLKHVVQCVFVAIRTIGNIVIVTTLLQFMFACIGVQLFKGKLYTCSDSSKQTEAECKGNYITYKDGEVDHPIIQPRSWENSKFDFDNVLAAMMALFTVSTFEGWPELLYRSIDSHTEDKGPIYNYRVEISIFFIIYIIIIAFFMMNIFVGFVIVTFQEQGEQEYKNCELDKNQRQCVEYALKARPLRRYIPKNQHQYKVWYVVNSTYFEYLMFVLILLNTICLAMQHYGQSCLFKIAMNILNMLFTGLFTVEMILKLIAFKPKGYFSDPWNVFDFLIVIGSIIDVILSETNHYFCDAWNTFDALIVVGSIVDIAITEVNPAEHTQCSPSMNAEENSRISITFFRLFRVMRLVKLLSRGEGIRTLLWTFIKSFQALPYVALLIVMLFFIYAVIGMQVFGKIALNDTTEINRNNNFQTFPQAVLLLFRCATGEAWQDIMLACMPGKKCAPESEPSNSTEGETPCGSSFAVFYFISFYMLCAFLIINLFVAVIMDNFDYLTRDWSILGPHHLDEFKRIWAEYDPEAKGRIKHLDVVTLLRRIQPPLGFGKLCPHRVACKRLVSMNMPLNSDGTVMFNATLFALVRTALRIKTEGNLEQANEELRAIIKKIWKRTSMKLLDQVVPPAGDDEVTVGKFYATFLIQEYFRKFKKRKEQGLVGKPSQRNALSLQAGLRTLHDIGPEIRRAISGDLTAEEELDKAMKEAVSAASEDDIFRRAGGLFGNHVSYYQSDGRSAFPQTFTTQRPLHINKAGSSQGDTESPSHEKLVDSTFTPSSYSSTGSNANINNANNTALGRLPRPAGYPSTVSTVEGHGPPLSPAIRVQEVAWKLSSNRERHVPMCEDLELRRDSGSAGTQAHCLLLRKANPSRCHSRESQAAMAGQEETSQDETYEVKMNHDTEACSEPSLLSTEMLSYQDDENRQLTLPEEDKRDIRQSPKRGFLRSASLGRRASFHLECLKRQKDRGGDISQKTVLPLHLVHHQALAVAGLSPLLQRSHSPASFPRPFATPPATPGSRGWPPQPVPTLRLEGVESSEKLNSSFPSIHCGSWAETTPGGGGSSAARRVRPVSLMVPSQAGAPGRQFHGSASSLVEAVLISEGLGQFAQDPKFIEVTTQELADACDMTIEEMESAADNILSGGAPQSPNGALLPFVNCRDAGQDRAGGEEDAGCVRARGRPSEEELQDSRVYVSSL
Sequence of Cannabinoid receptor 1 (P21554 whole entry): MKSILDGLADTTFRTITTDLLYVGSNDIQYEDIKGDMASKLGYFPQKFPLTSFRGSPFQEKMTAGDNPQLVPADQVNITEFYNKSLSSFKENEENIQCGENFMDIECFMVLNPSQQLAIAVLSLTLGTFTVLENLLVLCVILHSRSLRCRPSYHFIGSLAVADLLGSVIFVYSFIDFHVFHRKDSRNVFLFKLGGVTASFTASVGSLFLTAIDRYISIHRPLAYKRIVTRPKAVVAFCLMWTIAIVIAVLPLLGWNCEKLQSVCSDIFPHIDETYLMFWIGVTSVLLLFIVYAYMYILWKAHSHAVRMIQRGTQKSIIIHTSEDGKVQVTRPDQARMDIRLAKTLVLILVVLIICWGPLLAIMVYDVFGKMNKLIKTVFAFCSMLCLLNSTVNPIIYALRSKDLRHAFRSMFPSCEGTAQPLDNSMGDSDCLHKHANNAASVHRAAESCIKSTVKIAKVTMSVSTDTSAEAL
Sequence of 5-hydroxytryptamine receptor 2A (P28223 whole entry): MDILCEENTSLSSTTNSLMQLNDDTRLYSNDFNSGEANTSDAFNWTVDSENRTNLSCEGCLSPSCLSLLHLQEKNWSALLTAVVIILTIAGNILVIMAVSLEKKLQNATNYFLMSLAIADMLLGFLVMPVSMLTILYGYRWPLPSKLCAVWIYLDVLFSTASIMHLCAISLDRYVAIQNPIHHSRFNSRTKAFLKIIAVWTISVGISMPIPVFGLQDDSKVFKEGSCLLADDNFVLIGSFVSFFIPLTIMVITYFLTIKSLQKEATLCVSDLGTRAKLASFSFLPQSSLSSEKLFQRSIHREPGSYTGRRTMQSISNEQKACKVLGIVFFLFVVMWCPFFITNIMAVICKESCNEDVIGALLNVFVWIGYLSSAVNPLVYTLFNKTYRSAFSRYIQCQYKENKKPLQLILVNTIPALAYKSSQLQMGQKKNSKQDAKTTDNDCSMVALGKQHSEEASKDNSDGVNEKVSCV
Sequence of Vascular endothelial growth factor receptor 2 (P35968 whole entry): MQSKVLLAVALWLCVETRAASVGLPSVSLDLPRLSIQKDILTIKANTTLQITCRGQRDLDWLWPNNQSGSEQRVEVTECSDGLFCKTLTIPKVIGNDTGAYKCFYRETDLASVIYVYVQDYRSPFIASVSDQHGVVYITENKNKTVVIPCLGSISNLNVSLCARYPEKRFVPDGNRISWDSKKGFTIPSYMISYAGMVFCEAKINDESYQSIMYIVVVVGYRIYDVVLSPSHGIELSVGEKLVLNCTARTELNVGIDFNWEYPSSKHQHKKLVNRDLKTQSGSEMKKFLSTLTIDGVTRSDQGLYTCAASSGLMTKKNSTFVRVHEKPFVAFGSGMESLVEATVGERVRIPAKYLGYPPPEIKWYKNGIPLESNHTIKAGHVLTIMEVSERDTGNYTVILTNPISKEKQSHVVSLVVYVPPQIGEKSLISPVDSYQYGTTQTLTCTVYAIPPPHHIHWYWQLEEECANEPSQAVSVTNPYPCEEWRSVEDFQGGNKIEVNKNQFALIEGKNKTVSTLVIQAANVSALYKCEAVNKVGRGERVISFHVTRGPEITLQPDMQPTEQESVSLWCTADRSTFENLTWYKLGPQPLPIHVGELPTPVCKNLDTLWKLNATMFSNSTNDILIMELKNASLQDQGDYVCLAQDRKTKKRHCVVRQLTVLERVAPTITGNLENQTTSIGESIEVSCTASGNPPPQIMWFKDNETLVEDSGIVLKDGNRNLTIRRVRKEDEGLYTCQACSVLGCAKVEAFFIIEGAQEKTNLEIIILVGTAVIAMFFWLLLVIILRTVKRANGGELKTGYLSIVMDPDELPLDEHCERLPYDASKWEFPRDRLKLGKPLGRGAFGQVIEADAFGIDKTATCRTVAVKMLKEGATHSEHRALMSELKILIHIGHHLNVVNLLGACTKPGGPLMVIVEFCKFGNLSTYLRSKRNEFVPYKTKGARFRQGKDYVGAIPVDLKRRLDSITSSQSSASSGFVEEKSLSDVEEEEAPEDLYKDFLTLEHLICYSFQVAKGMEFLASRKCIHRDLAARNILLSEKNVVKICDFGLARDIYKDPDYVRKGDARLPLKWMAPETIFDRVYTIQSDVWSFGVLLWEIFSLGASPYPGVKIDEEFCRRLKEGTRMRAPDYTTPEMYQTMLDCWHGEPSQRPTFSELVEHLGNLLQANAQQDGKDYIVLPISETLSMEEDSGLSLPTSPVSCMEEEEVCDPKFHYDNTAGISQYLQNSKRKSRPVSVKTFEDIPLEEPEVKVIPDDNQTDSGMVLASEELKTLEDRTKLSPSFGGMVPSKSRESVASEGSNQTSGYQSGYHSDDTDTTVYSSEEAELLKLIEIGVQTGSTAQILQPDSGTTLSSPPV

Regarding `COC(=O)N[C@H](C(=O)N1CCC[C@H]1c1nc(-c2ccc(-c3ccc(-c4c[nH]c([C@@H]5CCCN5C(=O)[C@@H](NC(=O)OC)C(C)C)n4)cc3)cc2)c[nH]1)C(C)C`, the AC50 (in assay [1]; at Androgen receptor) was > 30 µM in each case.
As to `CCOC(=O)[C@H](CCc1ccccc1)N[C@@H](C)C(=O)N1CCC[C@H]1C(=O)O`, the AC50 (in assay [2]; on Cannabinoid receptor 1) was > 10 µM throughout.
For the molecule `C[C@H]1O[C@H](O[C@H]2[C@H](O)[C@@H](O)[C@@H](O[C@H]3[C@H](O)[C@@H](O)C(O)O[C@@H]3CO)O[C@@H]2CO)[C@H](O)[C@@H](O)[C@@H]1N[C@H]1C=C(CO)[C@@H](O)[C@H](O)[C@H]1O` (stereo not given in full) [ACARBOSE], the AC50 (in assay [2]; at Cannabinoid receptor 1) was > 10 µM each time.
The molecule `CC(=O)c1ccc2c(c1)N(CCCN1CCN(CCO)CC1)c1ccccc1S2` [ACETOPHENAZINE] came in with an AC50 on Estrogen receptor of 13 µM.
`CC(N)Cc1ccccc1` (stereo not given) [AMPHETAMINE]: the AC50 at Androgen receptor was > 30 µM; on Estrogen receptor, > 30 µM; in assay [3], > 10 µM.
With `CN1CCCC(n2nc(Cc3ccc(Cl)cc3)c3ccccc3c2=O)CC1` (stereo not given) [AZELASTINE], the AC50 on Estrogen receptor is > 30 µM.
`O=C1c2c(O)c(=O)ccn2N([C@@H]2c3ccccc3SCc3c2ccc(F)c3F)[C@@H]2COCCN12` [BALOXAVIR]: the AC50 in assay [1] was > 50 µM.
Turning to `CC(C)NCC(O)COc1ccc(COCCOC(C)C)cc1` (stereo not given) [BISOPROLOL], the AC50 in assay [3] is > 10 µM.
`COc1cc(Nc2c(C#N)cnc3cc(OCCCN4CCN(C)CC4)c(OC)cc23)c(Cl)cc1Cl` [BOSUTINIB]: the AC50 on Adenosine receptor A1 was > 30 µM; in assay [2], 12.1 µM; on Cannabinoid receptor 1, > 10 µM.
As to `CC(=O)OCC(=O)[C@@]1(O)CC[C@H]2[C@@H]3CCC4=CC(=O)CC[C@]4(C)[C@H]3C(=O)C[C@@]21C` [CORTISONE ACETATE], the AC50 on Adenosine receptor A1 was > 30 µM.
Regarding `CN(CCOc1ccc(NS(C)(=O)=O)cc1)CCc1ccc(NS(C)(=O)=O)cc1` [DOFETILIDE], the AC50 in assay [3] was > 10 µM.
As for `COc1cc2c(cc1OC)C(=O)C(CC1CCN(Cc3ccccc3)CC1)C2` (stereo not given) [DONEPEZIL], the AC50 is 15.4 µM in assay [2], > 10 µM at Cannabinoid receptor 1 and > 10 µM in assay [3].
In the case of `COC(=O)[C@@H]1CC2=CC(=O)CC[C@]2(C)[C@@]23O[C@@H]2C[C@@]2(C)[C@@H](CC[C@@]24CCC(=O)O4)[C@H]13` [EPLERENONE], the AC50 in assay [4] was > 30 µM; at Estrogen receptor, > 30 µM; in assay [3] it was > 10 µM.
With `CCC(=O)O[C@H]1[C@H](O[C@@H]2[C@@H](C)[C@H](O[C@H]3C[C@@](C)(OC)[C@@H](O)[C@H](C)O3)[C@@H](C)C(=O)O[C@H](CC)[C@@](C)(O)[C@H](O)[C@@H](C)C(=O)[C@H](C)C[C@@]2(C)O)O[C@H](C)C[C@@H]1N(C)C` [ERYTHROMYCIN PROPIONATE], the AC50 on Adenosine receptor A1 is > 30 µM.
On the same count and under the same terms, then `C#C[C@]1(O)CC[C@H]2[C@@H]3CCc4cc(O)ccc4[C@H]3CC[C@@]21C` [ETHINYL ESTRADIOL], with > 30 µM.
Consider `NC(N)=Nc1nc(CSCCC(N)=NS(N)(=O)=O)cs1` [FAMOTIDINE], for which the AC50 (in assay [2]; at Cannabinoid receptor 1) was > 10 µM throughout.
For `COc1ccc2c(c1)C(=O)N(CCc1ccc(S(=O)(=O)NC(=O)NC3CCCCC3)cc1)C(=O)C2(C)C` [GLIQUIDONE], the AC50 on Androgen receptor is > 30 µM.
`NS(=O)(=O)c1cc2c(cc1Cl)NCNS2(=O)=O` [HYDROCHLOROTHIAZIDE]: the AC50 (in assay [2]; on Cannabinoid receptor 1) was > 10 µM throughout.
In the case of `OC[C@@H](O)[C@@H](O)[C@H](O)[C@H](O)CO` [MANNITOL], the AC50 on Adenosine receptor A1 is > 30 µM.
In the case of `Cc1cccc(C)c1OCC(C)N` (stereo not given) [MEXILETINE], in assay [1], the AC50 was > 50 µM.
Turning to `CCc1nn(CCCN2CCN(c3cccc(Cl)c3)CC2)c(=O)n1CCOc1ccccc1` [NEFAZODONE], the AC50 on Cannabinoid receptor 1 was > 10 µM.
In the case of `OCCN1CCN(CCCN2c3ccccc3C=Cc3ccccc32)CC1` [OPIPRAMOL], the AC50 at Adenosine receptor A1 is > 30 µM.
For `CCc1ccc(CCOc2ccc(CC3SC(=O)NC3=O)cc2)nc1` (stereo not given) [PIOGLITAZONE], the half-maximal activity concentration (AC50) at Cannabinoid receptor 1 is > 10 µM.
Consider `CC(C(=O)O)c1ccc(N2CC=CC2)c(Cl)c1` (stereo not given) [PIRPROFEN], for which the AC50 in assay [3] was > 10 µM.
On to `CC[C@H](C)C(=O)O[C@H]1C[C@H](O)C=C2C=C[C@H](C)[C@H](CC[C@@H](O)C[C@@H](O)CC(=O)O)[C@H]21` [PRAVASTATIN], for which the AC50 at Estrogen receptor was > 30 µM.
As for `O=C(NC[C@H]1CN(c2ccc(N3CCOCC3=O)cc2)C(=O)O1)c1ccc(Cl)s1` [RIVAROXABAN], the AC50 at Adenosine receptor A1 is > 30 µM.
Turning to `Cc1cc2c(cc1CC(=O)c1sccc1S(=O)(=O)Nc1onc(C)c1Cl)OCO2` [SITAXENTAN], the AC50 on Adenosine receptor A1 is > 30 µM.
For `CC(C)OC(=O)[C@H](C)N[P@](=O)(OC[C@H]1O[C@@H](n2ccc(=O)[nH]c2=O)[C@](C)(F)[C@@H]1O)Oc1ccccc1` [SOFOSBUVIR], in assay [1], the AC50 is > 50 µM.
As to `CS(=O)(=O)c1ccc([C@@H](O)[C@@H](CO)NC(=O)C(Cl)Cl)cc1` [THIAMPHENICOL], the AC50 in assay [1] is > 50 µM.
Regarding `CCCS(=O)(=O)Nc1ccc(F)c(C(=O)c2c[nH]c3ncc(-c4ccc(Cl)cc4)cc23)c1F` [VEMURAFENIB], the AC50 (in assay [1]; at Androgen receptor) was > 30 µM each time.
Consider `OCc1cc([C@@H](O)CNCCCCCCOCCOCc2c(Cl)cccc2Cl)ccc1O` [VILANTEROL], for which the AC50 on Androgen receptor and on Estrogen receptor was > 30 µM throughout.
Turning to `CCOC(=O)N[C@@H]1CC[C@@H]2[C@@H](C1)C[C@H]1C(=O)O[C@H](C)[C@H]1[C@H]2/C=C/c1ccc(-c2cccc(F)c2)cn1` [VORAPAXAR], in assay [1], the AC50 is > 50 µM.
As for `O=C(CCCCCCC(=O)Nc1ccccc1)NO` [VORINOSTAT], the concentration at half-maximal activity (AC50) (in assay [2]; at Cannabinoid receptor 1; in assay [3]) was > 10 µM throughout.
